Measurements as given in paper PMC11813147, “Bioactivity assessment of peptides derived from salted jellyfish (Rhopilema hispidum) byproducts” (PLOS ONE, 2025).

Key:
[1] = tested on: angiotensin I-converting enzyme (ACE); test: ACE inhibitory activity assay (fluorometric ACE activity assay kit); assay type: biochemical
Description: The ACE inhibitory activity assay was performed following the method outlined by Batista et al., with slight modifications, using a fluorometric angiotensin I-converting enzyme (ACE) activity assay kit from Sigma-Aldrich (catalog number CS0002), Burlington, Massachusetts, USA. In summary, 10 µ L of the sample (1 mg/mL for the peptide sample and 50 µg/mL for ramipril) was combined with 40 µ L of the ACE solution (CS0002B) in 96-well flat-bottom black plates at 37 °C for 5 min. Next, 50 µ L of the substrate solution (CS0002C) was added to this mixture to initiate the reaction. A fluorescence multiwell plate reader was used to monitor the changes in fluorescence. The sample’s fluorescence was measured every min for 5 min, with excitation at 320 nm and emission at 405 nm. All reagents, except the test sample, were prepared to assess the ACE positive control activity. A kit standard solution (CS0002D) was diluted with assay buffer (CS0002A) to create different concentrations (nmol) of the standard solution, allowing generation of a standard curve. The slope of the standard curve (RFU/nmol) and the slope of the sample kinetic curve were utilized to calculate the ACE activity using the following equation (3):
ACEactivitynmol/min=Slopesample/Slopestandard×DF (3)
Where Slopesample refers to the slope of the blank-subtracted sample curve (RFU/min), Slopestandard refers to the slope of the blank-subtracted standard curve (RFU/nmol), DF is the dilution factor, and 0.1 nmol/min is equivalent to […].
In this study, the results of ACE inhibitory activity are expressed as percentages. The ACE inhibitory activity (%) was calculated using the following equation (4):
ACEinhibitoryactivity%=ACEPC–ACES/ACEPC×100 (4)
Where ACEPC represents the ACE activity of the positive control, and ACES denotes the ACE activity of the sample.

[2] = DPPH radical scavenging assay; assay type: biochemical; settings: supplement tables; for DPPH, mean±SD: n = 3
Description: The DPPH radical scavenging activity of the sample was assessed following a modified protocol based on a previous study. In each well of a 96-well plate, 10 μL of the sample was added, followed by 190 μL of 0.1 mM DPPH solution in 70% ethanol. The mixture was then incubated at room temperature in the dark for 30 min. After the incubation period, the absorbance of the mixture was measured at 517 nm. The DPPH radical scavenging activity was calculated using the following equation (1):
DPPHradicalscavengingactivity%=Acontrol–Asample/Acontrol×100 (1)
In this equation, Acontrol represents the absorbance of a control solution containing all reagents except for the test samples, while Asample is the absorbance of the mixture (the sample combined with 0.1 mM DPPH). To determine the Trolox equivalent antioxidant capacity (TEAC), a Trolox standard curve was utilized. The results were expressed as millimoles of Trolox equivalents per milligram of protein (mM TE/mg protein).

RAW 264.7 [3] = test: Anti-inflammation assay: released NO in LPS-stimulated RAW 264.7 (Griess); assay type: cell-based, Murine; settings: then 1 µg/mL LPS 24 h; for Released NO: peptide 10 µg/mL 1 h; for Released NO, mean±SD: peptide 10 µg/mL pre-treatment 1 h, Griess reagent, n = 3
Description: (§1) Murine macrophage cells (RAW 264.7; ATCC TIB-71™) were cultured in Dulbecco’s Modified Eagle’s Medium (DMEM) that was supplemented with 10% heat-inactivated fetal bovine serum (FBS) and 1% antibiotic solution. Colorectal adenocarcinoma cells (CaCo-2; ATCC HTB 37™) were cultured in Eagle’s Minimum Essential Medium (EMEM), also supplemented with 10% heat-inactivated FBS and 1% antibiotic solution. Both cell types were maintained in a humidified incubator with 5% CO2. The cell culture medium was refreshed every three days.
The anti-inflammation assay was conducted following the method described by Barzkar et al. with slight modifications. RAW 264.7 (1 x 10^5 cells) was seeded into a 96-well plate to allow for cell attachment. After 24 h, the cells were pre-treated with fresh medium containing peptide samples at a concentration of 10 µg/mL for 1 h. Subsequently, the treated cells were stimulated with 1 µg/mL lipopolysaccharide (LPS) for an additional 24 h. Unstimulated cells were included as a negative control. At the end of the treatment period, the conditioned medium was collected for the determination of released nitric oxide (NO). Griess’s reagent (Promega) was utilized to measure the NO concentration, following the manufacturer’s instructions. A NO calibration curve was generated to quantify the released NO in the conditioned medium.

[4] = ABTS radical scavenging assay; assay type: biochemical; settings: supplement tables; for ABTS, mean±SD: n = 3
Description: The ABTS radical scavenging activity of the sample was measured using a method adapted from Mirzaei et al.. The ABTS radical was generated by mixing 7 mM ABTS with 2.45 mM potassium persulfate in a 1:1 ratio and incubating the mixture in the dark at room temperature for 12 to 16 h. The resulting solution was then diluted to achieve an absorbance of 0.74 ± 0.03 at 734 nm, using deionized water for adjustments. Next, 10 μL of the sample was added to 190 μL of the ABTS solution. The mixture was incubated in the dark for 7 min, after which the absorbance was measured at 734 nm. The ABTS radical scavenging activity (%) was calculated using the following equation (2):
ABTSradicalscavengingactivity%=Acontrol–Asample/Acontrol×100 (2)
In this equation, Acontrol refers to the absorbance of the control solution (which contains all reagents except the test samples), while Asample refers to the absorbance of the mixture containing the sample and the ABTS solution. To determine the Trolox equivalent antioxidant capacity (TEAC), a Trolox standard curve was used, and the results were expressed as millimoles of Trolox equivalents per milligram of protein (mM TE/mg protein).

RAW 264.7 [5] = test: Cytotoxicity assessment (MTT); assay type: cell-based, Murine; settings: peptide 10 µg/mL, 72 h
Description: as §1
Cytotoxicity assessment was performed following the method described by Yang et al., with slight modifications. RAW 264.7 was seeded with 1 x 10^5 cells in a 96-well plate with an appropriate cell culture medium. After allowing the cells to attach, the medium was replaced with a fresh cell culture medium containing the peptide samples at a concentration of 10 µg/mL. The treated cells were incubated for an additional 72 h. At the designated time, fresh medium was added, which included 3-(4,5-dimethylthiazol-2-yl)-2,5-diphenyltetrazolium bromide (MTT) at a concentration of 0.5 mg/mL. After 3 h, formazan crystals were observed. The medium was then removed, and the crystals were dissolved in 100% dimethyl sulfoxide (DMSO). A microplate reader (Synergy HTX; Biotek, Multi-Mode Reader, Winooski, VT, USA) was utilized to measure the absorbance at 570 nm (measurement wavelength) and 630 nm (reference wavelength). The percentage of cell viability was calculated relative to untreated cells using the following equation (5):
Cellviability%=ODtreatment–ODblank/ODuntreated–ODblank×100 (5)
Where ODtreatment is the absorbance of the treated sample, ODuntreated is the absorbance of the untreated sample, and ODblank is the absorbance from wells without treated and untreated samples.

[6] = Ferric reducing antioxidant power (FRAP) assay; assay type: biochemical
Description: The FRAP assay was conducted following the method outlined by Rumpf et al.. The FRAP solution was prepared by mixing 300 mM acetate buffer (pH 3.6), 10 mM TPTZ (2,4,6-Tris(2-pyridyl)-s-triazine) in 40 mM hydrochloric acid, and 20 mM FeCl3 in a ratio of 10:1:1. In a 96-well plate, 10 μL of the sample was combined with 190 μL of the FRAP solution and incubated in the dark for 15 min. The absorbance of the mixture was then measured at 593 nm. FeSO4 was used to create the standard curve, and the results were expressed as millimoles of FeSO4 equivalent per milligram of protein (mM FeSO4/mg protein).

[7] = peptide sample 1 mg/mL, 37 °C, fluorescence ex 320/em 405 nm, mean ± SD, n = 3, SD
[8] = peptide sample 1 mg/mL, replicate 1
[9] = peptide sample 1 mg/mL, replicate 2
[10] = peptide sample 1 mg/mL, replicate 3
[11] = 10 µL sample + 190 µL FRAP solution, 15 min dark, 593 nm, FeSO4 standard curve, mean ± SD, n = 3, SD

| Compound | ACE inhibitory activity [1, 8] | ACE inhibitory activity [1, 9] | ACE inhibitory activity [1, 10] | DPPH, mean±SD [2] | DPPH ([2]; replicate 1) | DPPH ([2]; replicate 2) | DPPH ([2]; replicate 3) | Released NO (RAW 264.7 [3]; replicate 1) | Released NO (RAW 264.7 [3]; replicate 2) | Released NO (RAW 264.7 [3]; replicate 3) | Released NO, mean±SD (RAW 264.7 [3]) | ABTS, mean±SD [4] | ABTS ([4]; replicate 1) | ABTS ([4]; replicate 2) | ABTS ([4]; replicate 3) | Cell viability (RAW 264.7 [5]; replicate 1) | Cell viability (RAW 264.7 [5]; replicate 2) | Cell viability (RAW 264.7 [5]; replicate 3) | FRAP ([6]; supplement tables, replicate 1) | FRAP ([6]; supplement tables, replicate 2) | also measured |
| --- | --- | --- | --- | --- | --- | --- | --- | --- | --- | --- | --- | --- | --- | --- | --- | --- | --- | --- | --- | --- | --- |
| CCOC(=O)[C@H](CCc1ccccc1)N[C@@H](C)C(=O)N1[C@H](C(=O)O)C[C@@H]2CCC[C@@H]21 [Ramipril, ramipril, reference compound] |  |  |  |  |  |  |  |  |  |  |  |  |  |  |  |  |  |  |  |  | ACE inhibitory activity, mean±SD ([1]; ramipril 50 µg/mL, mean ± SD, n = 3, SD): 23.23±0.44^G %; ACE inhibitory activity, mean±SD ([1]; ramipril 50 µg/mL, mean ± SD, n = 3, listed as ramipril, SD): 23.23 ± 0.44%; ACE inhibitory activity ([1]; ramipril 50 µg/mL, replicate 1): 22.79%; ACE inhibitory activity ([1]; ramipril 50 µg/mL, replicate 2): 23.23%; ACE inhibitory activity ([1]; ramipril 50 µg/mL, replicate 3): 23.67% |
| EIILIPMF [P3, synthesized peptide identified from jellyfish fraction PUR20C] | 33.58% | 33.87% | 34.16% | 2.93 TE/mg protein | 2.84 TE/mg protein | 2.58 TE/mg protein | 3.37 TE/mg protein | 37.58 µM | 35.17 µM | 37.24 µM | 36.66 ± 1.30 µM | 3.17 TE/mg protein | 3.31 TE/mg protein | 2.71 TE/mg protein | 3.51 TE/mg protein | 75.57% | 75.92% | 75.39% | 9.31 mM FeSO4/mg protein | 9.31 mM FeSO4/mg protein | ACE inhibitory activity, mean±SD [1, 7]: 33.87±0.28^E %; FRAP [6, 11]: 9.24±0.12 mM FeSO4/mg protein; FRAP ([6]; supplement tables, replicate 3): 9.10 mM FeSO4/mg protein |
| LMFMAVAFF [P12, synthesized peptide identified from jellyfish fraction PUR20C] | 49.61% | 43.60% | 49.33% | 2.75 TE/mg protein | 2.58 TE/mg protein | 2.58 TE/mg protein | 3.11 TE/mg protein | 36.89 µM | 38.62 µM | 40.00 µM | 38.50±1.55^B µM | 0.64±0.30^M TE/mg protein | 0.90 TE/mg protein | 0.30 TE/mg protein | 0.70 TE/mg protein | 76.97% | 73.98% | 74.86% | 16.26 mM FeSO4/mg protein | 17.31 mM FeSO4/mg protein | ACE inhibitory activity, mean±SD [1, 7]: 47.51±3.39^D %; FRAP [6, 11]: 16.75±0.52^B mM FeSO4/mg protein; FRAP ([6]; supplement tables, replicate 3): 16.68 mM FeSO4/mg protein |
| NFTVLCDSLE [P10, synthesized peptide identified from jellyfish fraction PUR20C] | 11.25% | 9.82% | 8.39% | 45.99±1.10^B TE/mg protein | 46.34 TE/mg protein | 44.75 TE/mg protein | 46.87 TE/mg protein | 35.86 µM | 35.17 µM | 38.27 µM | 36.43 µM | 98.00±0.50^G TE/mg protein | 97.47 TE/mg protein | 98.07 TE/mg protein | 98.47 TE/mg protein | 85.41% | 84.35% | 86.29% | 20.05 mM FeSO4/mg protein | 21.10 mM FeSO4/mg protein | inhibition [1, 7]: 9.82 ± 1.43%; Cell viability, mean±SD (RAW 264.7 [5]; relative to untreated cells, mean ± SD, n = 3, SD): 85.35%; FRAP ([6]; supplement tables, replicate 3): 18.36 mM FeSO4/mg protein |
